In patent US8999940B2 (Ipsen Pharma S.A.S., priority 2008, dated 2015):

Experiments:
[1] = biological target: T1, human recombinant GIP receptor (Homo sapiens, UniProt P48546); experiment: In vitro hGIP receptor binding assay
T1 construct: expressed in transfected cells; host or cells: CHO-K1 clonal cells (membrane preparation)
T1 sequence (P48546 22-466): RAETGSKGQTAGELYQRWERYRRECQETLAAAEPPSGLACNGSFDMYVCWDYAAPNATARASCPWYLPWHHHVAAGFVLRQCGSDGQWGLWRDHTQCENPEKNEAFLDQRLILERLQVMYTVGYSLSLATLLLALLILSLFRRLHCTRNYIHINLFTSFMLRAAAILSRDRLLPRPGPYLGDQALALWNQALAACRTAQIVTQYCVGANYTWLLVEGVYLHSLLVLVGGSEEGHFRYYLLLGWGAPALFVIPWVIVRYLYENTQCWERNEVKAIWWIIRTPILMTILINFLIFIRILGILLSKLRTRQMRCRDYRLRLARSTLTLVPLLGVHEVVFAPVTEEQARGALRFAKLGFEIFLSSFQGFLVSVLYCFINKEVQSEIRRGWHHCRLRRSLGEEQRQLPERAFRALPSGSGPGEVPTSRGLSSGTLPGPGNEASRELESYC
Experimental: A. In Vitro hGIP Receptor Binding Assay […] The incubations were terminated by rapid filtration through GF/C filters (pre-soaked in 0.5% polyethylenimine) using a Brandel filtration manifold. Each tube and filter were then washed three times with 5-ml aliquots of ice-cold buffer.

[2] = Human plasma half-life assay; format: in vitro ADME; conditions: 37° C., LC-MS, read-out: Human Plasma T½ (converted)
Experimental: (§1) B. Human and Rat Plasma Half-Life Assay
(§2) 50 μl was removed at various times, like at 0, 1, 2, 3, 4, 8, 24, 32, 48, 56, 72 hours, mixed with 5 μl formic acid and 150 μL acetonitrile in a microcentrifuge tube, vertexed, and centrifuged for 10 minutes at 10 K rpm. The supernatant was transferred to an injection vial and analyzed by LC-MS. The LC-MS system consisted of an API4000 mass spectrometer with an ESI probe. Positive ion mode and full scan detection were used. HPLC separation was carried out on a Luna 3μ. C8 (2), 2×30 mm column with a gradient from 90% A to 90% B in 10 minutes at a flow rate of 0.3 ml/min. Buffer A was 1% formic acid in water and buffer B was 1% formic acid acetonitrile.

[3] = Rat plasma half-life assay; format: in vitro ADME; conditions: 37° C., LC-MS, read-out: Rat Plasma T½ (converted)
Experimental: as §1, §2

| SMILES | Ki [1] | half-life at 0.1 mg/ml [2] | half-life at 0.1 mg/ml [3] |
| --- | --- | --- | --- |
| CCCC[C@H](NC(=O)[C@H](C)NC(=O)[C@@H](NC(=O)C1(NC(=O)[C@H](Cc2ccc(O)cc2)NC(=O)[C@H](CC(=O)O)NC(=O)[C@H](CO)NC(=O)[C@@H](NC(=O)[C@H](Cc2ccccc2)NC(=O)[C@@H](NC(=O)CNC(=O)[C@H](CCC(=O)O)NC(=O)C(C)(C)NC(=O)[C@@H](N)Cc2ccc(O)c(Br)c2)[C@@H](C)O)[C@@H](C)CC)CCCC1)[C@@H](C)CC)C(=O)N[C@@H](CC(=O)O)C(=O)N[C@@H](CCCCN)C(=O)N[C@H](C(=O)N[C@@H](Cc1c[nH]cn1)C(=O)N[C@@H](CCC(N)=O)C(=O)N[C@@H](CCC(N)=O)C(=O)N[C@@H](CC(=O)O)C(=O)N[C@@H](Cc1ccccc1)C(=O)N[C@H](C(=O)N[C@@H](CC(N)=O)C(=O)N[C@@H](Cc1c[nH]c2ccccc12)C(=O)N[C@@H](CC(C)C)C(=O)N[C@@H](CC(C)C)C(=O)N[C@@H](C)C(=O)N[C@@H](CCC(N)=O)C(=O)N[C@@H](CCCCN)C(=O)NCC(=O)N[C@@H](CCCCN)C(=O)N[C@@H](CCCCN)C(=O)N[C@@H](CC(N)=O)C(=O)N[C@@H](CC(=O)O)C(=O)N[C@@H](Cc1c[nH]c2ccccc12)C(=O)N[C@@H](CCCCN)C(=O)N[C@@H](Cc1c[nH]cn1)C(=O)N[C@@H](CC(N)=O)C(=O)N[C@H](C(=O)N[C@H](C(=O)N[C@@H](CCC(N)=O)C(=O)O)[C@@H](C)O)[C@@H](C)CC)C(C)C)[C@@H](C)CC [Example 15, (3Br-Tyr^1, Aib^2, A5c^11, Nle^14)hGIP(1-42)-OH] | 0.6 nM | 50.6 h | 22.9 h |
| CC[C@H](C)[C@H](NC(=O)[C@H](CCCCN)NC(=O)[C@H](CC(=O)O)NC(=O)C1(NC(=O)[C@H](C)NC(=O)[C@@H](NC(=O)C2(NC(=O)[C@H](Cc3ccc(O)cc3)NC(=O)[C@H](CC(=O)O)NC(=O)[C@H](CO)NC(=O)[C@@H](NC(=O)[C@H](Cc3ccccc3)NC(=O)[C@@H](NC(=O)CNC(=O)[C@H](CCC(=O)O)NC(=O)C(C)(C)NC(=O)[C@@H](N)Cc3c(C)cc(O)cc3C)[C@@H](C)O)[C@@H](C)CC)CCCC2)[C@@H](C)CC)CCCC1)C(=O)N[C@@H](Cc1c[nH]cn1)C(=O)N[C@@H](CCC(N)=O)C(=O)N[C@@H](CCC(N)=O)C(=O)N[C@@H](CC(=O)O)C(=O)N[C@@H](Cc1ccccc1)C(=O)N[C@H](C(=O)N[C@@H](CC(N)=O)C(=O)N[C@@H](Cc1c[nH]c2ccccc12)C(=O)N[C@@H](CC(C)C)C(=O)N[C@@H](CC(C)C)C(=O)N[C@@H](C)C(=O)N[C@@H](CCC(N)=O)C(=O)N[C@@H](CCCCN)C(=O)NCC(=O)N[C@@H](CCCCN)C(=O)N[C@@H](CCCCN)C(=O)N[C@@H](CC(N)=O)C(=O)N[C@@H](CC(=O)O)C(=O)N[C@@H](Cc1c[nH]c2ccccc12)C(=O)N[C@@H](CCCCN)C(=O)N[C@@H](Cc1c[nH]cn1)C(=O)N[C@@H](CC(N)=O)C(=O)N[C@H](C(=O)N[C@H](C(=O)N[C@@H](CCC(N)=O)C(=O)N[C@@H](Cc1c[nH]cn1)C(=O)O)[C@@H](C)O)[C@@H](C)CC)C(C)C [Example 54, (2,6Me-Tyr^1, Aib^2, A5c^11, 14, His^43)hGIP(1-43)-OH] | 50.2 nM | > 50 h | 21.5 h |
| CCCC[C@H](NC(=O)[C@H](C)NC(=O)[C@@H](NC(=O)C1(NC(=O)[C@H](Cc2ccc(O)cc2)NC(=O)[C@H](CC(=O)O)NC(=O)[C@H](CO)NC(=O)[C@@H](NC(=O)[C@H](Cc2ccccc2)NC(=O)[C@@H](NC(=O)CNC(=O)[C@H](CCC(=O)O)NC(=O)C(C)(C)NC(=O)[C@@H](N)CCc2ccc(O)cc2)[C@@H](C)O)[C@@H](C)CC)CCCC1)[C@@H](C)CC)C(=O)N[C@@H](CC(=O)O)C(=O)N[C@@H](CCCCN)C(=O)N[C@H](C(=O)N[C@@H](Cc1c[nH]cn1)C(=O)N[C@@H](CCC(N)=O)C(=O)N[C@@H](CCC(N)=O)C(=O)N[C@@H](CC(=O)O)C(=O)N[C@@H](Cc1ccccc1)C(=O)N[C@H](C(=O)N[C@@H](CC(N)=O)C(=O)N[C@@H](Cc1c[nH]c2ccccc12)C(=O)N[C@@H](CC(C)C)C(=O)N[C@@H](CC(C)C)C(=O)N[C@@H](C)C(=O)N[C@@H](CCC(N)=O)C(=O)N[C@@H](CCCCN)C(=O)NCC(=O)N[C@@H](CCCCN)C(=O)N[C@@H](CCCCN)C(=O)N[C@@H](CC(N)=O)C(=O)N[C@@H](CC(=O)O)C(=O)N[C@@H](Cc1c[nH]c2ccccc12)C(=O)N[C@@H](CCCCN)C(=O)N[C@@H](Cc1c[nH]cn1)C(=O)N[C@@H](CC(N)=O)C(=O)N[C@H](C(=O)N[C@H](C(=O)N[C@@H](CCC(N)=O)C(=O)O)[C@@H](C)O)[C@@H](C)CC)C(C)C)[C@@H](C)CC [Example 19, (hTyr^1, Aib^2, A5c^11, Nle^14)hGIP(1-42)-OH] | 77.3 nM | > 72 h | 15.2 h |
| CCCC[C@H](NC(=O)[C@H](C)NC(=O)[C@@H](NC(=O)C1(NC(=O)[C@H](Cc2ccc(O)cc2)NC(=O)[C@H](CC(=O)O)NC(=O)[C@H](CO)NC(=O)[C@@H](NC(=O)[C@H](Cc2ccccc2)NC(=O)[C@@H](NC(=O)CNC(=O)[C@H](CCC(=O)O)NC(=O)C(C)(C)NC(=O)[C@@H](N)Cc2ccc(Cl)cc2)[C@@H](C)O)[C@@H](C)CC)CCCC1)[C@@H](C)CC)C(=O)N[C@@H](CC(=O)O)C(=O)N[C@@H](CCCCN)C(=O)N[C@H](C(=O)N[C@@H](Cc1c[nH]cn1)C(=O)N[C@@H](CCC(N)=O)C(=O)N[C@@H](CCC(N)=O)C(=O)N[C@@H](CC(=O)O)C(=O)N[C@@H](Cc1ccccc1)C(=O)N[C@H](C(=O)N[C@@H](CC(N)=O)C(=O)N[C@@H](Cc1c[nH]c2ccccc12)C(=O)N[C@@H](CC(C)C)C(=O)N[C@@H](CC(C)C)C(=O)N[C@@H](C)C(=O)N[C@@H](CCC(N)=O)C(=O)N[C@@H](CCCCN)C(=O)NCC(=O)N[C@@H](CCCCN)C(=O)N[C@@H](CCCCN)C(=O)N[C@@H](CC(N)=O)C(=O)N[C@@H](CC(=O)O)C(=O)N[C@@H](Cc1c[nH]c2ccccc12)C(=O)N[C@@H](CCCCN)C(=O)N[C@@H](Cc1c[nH]cn1)C(=O)N[C@@H](CC(N)=O)C(=O)N[C@H](C(=O)N[C@H](C(=O)N[C@@H](CCC(N)=O)C(=O)O)[C@@H](C)O)[C@@H](C)CC)C(C)C)[C@@H](C)CC [Example 20, (Cpa^1, Aib^2, A5c^11, Nle^14)hGIP(1-42)-OH] | 9.4 nM | > 74 h | 24.3 h |
| CCCC[C@H](NC(=O)[C@H](C)NC(=O)[C@@H](NC(=O)C1(NC(=O)[C@H](Cc2ccc(O)cc2)NC(=O)[C@H](CC(=O)O)NC(=O)[C@H](CO)NC(=O)[C@@H](NC(=O)[C@H](Cc2ccccc2)NC(=O)[C@@H](NC(=O)CNC(=O)[C@H](CCC(=O)O)NC(=O)C(C)(C)NC(=O)[C@@H](N)Cc2cc(Br)c(O)c(Br)c2)[C@@H](C)O)[C@@H](C)CC)CCCC1)[C@@H](C)CC)C(=O)N[C@@H](CC(=O)O)C(=O)N[C@@H](CCCCN)C(=O)N[C@H](C(=O)N[C@@H](Cc1c[nH]cn1)C(=O)N[C@@H](CCC(N)=O)C(=O)N[C@@H](CCC(N)=O)C(=O)N[C@@H](CC(=O)O)C(=O)N[C@@H](Cc1ccccc1)C(=O)N[C@H](C(=O)N[C@@H](CC(N)=O)C(=O)N[C@@H](Cc1c[nH]c2ccccc12)C(=O)N[C@@H](CC(C)C)C(=O)N[C@@H](CC(C)C)C(=O)N[C@@H](C)C(=O)N[C@@H](CCC(N)=O)C(=O)N[C@@H](CCCCN)C(=O)NCC(=O)N[C@@H](CCCCN)C(=O)N[C@@H](CCCCN)C(=O)N[C@@H](CC(N)=O)C(=O)N[C@@H](CC(=O)O)C(=O)N[C@@H](Cc1c[nH]c2ccccc12)C(=O)N[C@@H](CCCCN)C(=O)N[C@@H](Cc1c[nH]cn1)C(=O)N[C@@H](CC(N)=O)C(=O)N[C@H](C(=O)N[C@H](C(=O)N[C@@H](CCC(N)=O)C(=O)O)[C@@H](C)O)[C@@H](C)CC)C(C)C)[C@@H](C)CC [Example 13, (3,5Br-Tyr^1, Aib^2, A5c^11, Nle^14)hGIP(1-42)-OH] | 21.8 nM | 50.6 h | 13.1 h |
